Where “and” joins values, the source holds several entries; their conditions need not be identical. Identical values can stand only once. Toxic doses and inconclusive results are not listed.
System: P388 leukemia ip, CD2F1 mice, survival T/C
Experiment: NCI In Vivo Anticancer Drug Screen. Data for tumor model P388 Leukemia (intraperitoneal) in CD2F1 (CDF1) mice
Settings: endpoint: median survival time, higher = longer survival
Procedure, shortened: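 Mice carrying the transplanted tumor received test compound or vehicle. Survival was recorded in each group, and the value is the treated-group measurement divided by that of the vehicle-treated control group.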

[1] = dose: 60.0 mg/kg/injection, schedule: Q01DX005 (ip), vehicle: Klucel (hydroxypropylcellulose) (HPC)
[2] = dose: 120.0 mg/kg/injection, schedule: Q01DX005 (ip), vehicle: Klucel (hydroxypropylcellulose) (HPC)
[3] = dose: 50.0 mg/kg/injection, schedule: Q01DX009 (ip), vehicle: Klucel (hydroxypropylcellulose) (HPC)
[4] = dose: 100.0 mg/kg/injection, schedule: Q01DX009 (ip), vehicle: Klucel (hydroxypropylcellulose) (HPC)
[5] = dose: 50.0 mg/kg/injection, schedule: Q01DX005 (ip), vehicle: saline with Tween-80
[6] = dose: 100.0 mg/kg/injection, schedule: Q01DX005 (ip), vehicle: saline with Tween-80
[7] = dose: 200.0 mg/kg/injection, schedule: Q01DX005 (ip), vehicle: saline with Tween-80
[8] = dose: 50.0 mg/kg/injection, schedule: Q01DX009 (ip), vehicle: saline
[9] = dose: 100.0 mg/kg/injection, schedule: Q01DX009 (ip), vehicle: saline
[10] = dose: 200.0 mg/kg/injection, schedule: Q01DX009 (ip), vehicle: saline
[11] = dose: 50.0 mg/kg/injection, schedule: Q01DX009 (ip), vehicle: saline with Tween-80
[12] = dose: 100.0 mg/kg/injection, schedule: Q01DX009 (ip), vehicle: saline with Tween-80
[13] = dose: 200.0 mg/kg/injection, schedule: Q01DX009 (ip), vehicle: saline with Tween-80
[14] = dose: 100.0 mg/kg/injection, schedule: Q04DX003 (ip), vehicle: saline
[15] = dose: 200.0 mg/kg/injection, schedule: Q04DX003 (ip), vehicle: saline
[16] = dose: 400.0 mg/kg/injection, schedule: Q04DX003 (ip), vehicle: saline
[17] = dose: 25.0 mg/kg/injection, schedule: Q01DX009 (ip), vehicle: saline with Tween-80
[18] = dose: 100.0 mg/kg/injection, schedule: Q01DX001 (ip), vehicle: Klucel (hydroxypropylcellulose) (HPC)
[19] = dose: 200.0 mg/kg/injection, schedule: Q01DX001 (ip), vehicle: Klucel (hydroxypropylcellulose) (HPC)

**Q.** `CC1(C)OC(=O)N=C1c1ccc(Cl)cc1` was tested. Which T/C [1] did it give?
**A.** 107 % of control

**Q.** What about the T/C [2] of the same compound?
**A.** 101 % of control

**Q.** With `Oc1c(Cl)cc(Cl)cc1C=NCCSc1ccc(Cl)cc1` as the compound, how does the T/C (dose: 50.0 mg/kg/injection, schedule: Q01DX005 (ip), vehicle: Klucel (hydroxypropylcellulose) (HPC)) read?
**A.** 99 % of control and 108 % of control and 111 % of control

**Q.** What about the T/C (dose: 100.0 mg/kg/injection, schedule: Q01DX005 (ip), vehicle: DMSO) of the same compound?
**A.** 115 % of control

**Q.** And the T/C (dose: 100.0 mg/kg/injection, schedule: Q01DX005 (ip), vehicle: Klucel (hydroxypropylcellulose) (HPC))?
**A.** 105 % of control and 115 % of control and 93 % of control

**Q.** What about the T/C (dose: 200.0 mg/kg/injection, schedule: Q01DX005 (ip), vehicle: DMSO) of the same compound?
**A.** 117 % of control

**Q.** What about the T/C (dose: 400.0 mg/kg/injection, schedule: Q01DX005 (ip), vehicle: DMSO) of the same compound?
**A.** 118 % of control

**Q.** And the T/C (dose: 400.0 mg/kg/injection, schedule: Q01DX005 (ip), vehicle: Klucel (hydroxypropylcellulose) (HPC))?
**A.** 101 % of control and 120 % of control

**Q.** What about the T/C (dose: 600.0 mg/kg/injection, schedule: Q01DX005 (ip), vehicle: DMSO) of the same compound?
**A.** 108 % of control

**Q.** What does the source list for `O=C1CC(C2OCOC3COCOC32)CC(=O)N1` (stereo not given)?
**A.** T/C [1]: 111 % of control; T/C [2]: 109 % of control; T/C (dose: 240.0 mg/kg/injection, schedule: Q01DX005 (ip), vehicle: Klucel (hydroxypropylcellulose) (HPC)): 100 % of control

**Q.** Which T/C [3] does the source give for `CC(C)(C)c1ccc(OP(=S)(NN)Oc2ccc(C(C)(C)C)cc2)cc1` here?
**A.** 98 % of control

**Q.** And the T/C [4]?
**A.** 102 % of control

**Q.** What about the T/C (dose: 200.0 mg/kg/injection, schedule: Q01DX009 (ip), vehicle: Klucel (hydroxypropylcellulose) (HPC)) of the same compound?
**A.** 94 % of control

**Q.** Which results are given for `O=S(=O)(Nc1ccccc1)c1ccc(C2CC3(Cl)C(Cl)=C(Cl)C2(Cl)C3(Cl)Cl)cc1` (stereo not given)?
**A.** T/C (dose: 100.0 mg/kg/injection, schedule: Q01DX009 (ip), vehicle: saline sonified): 90 % of control; T/C (dose: 200.0 mg/kg/injection, schedule: Q01DX009 (ip), vehicle: saline sonified): 90 % of control; T/C (dose: 400.0 mg/kg/injection, schedule: Q01DX009 (ip), vehicle: saline sonified): 90 % of control

**Q.** For `N#CCCn1nc(SCc2ccccc2)c(=S)[nH]c1=O`, which T/C [5] is on record?
**A.** 95 % of control

**Q.** And the T/C [6]?
**A.** 98 % of control

**Q.** What about the T/C [7] of the same compound?
**A.** 100 % of control

**Q.** `CC(N)=NC(C)C` was tested. Which T/C [8] did it give?
**A.** 101 % of control

**Q.** What about the T/C [9] of the same compound?
**A.** 101 % of control

**Q.** And the T/C [10]?
**A.** 99 % of control

**Q.** How did the T/C (dose: 44.0 mg/kg/injection, schedule: Q04DX003 (ip), vehicle: saline with Tween-80) turn out when `COC(=O)c1[nH]cnc1/N=N\N(CCF)CCF` was run?
**A.** 155 % of control

**Q.** And the T/C (dose: 66.0 mg/kg/injection, schedule: Q04DX003 (ip), vehicle: saline with Tween-80)?
**A.** 110 % of control

**Q.** Which results are given for `O=[N+]([O-])c1nc(Br)n[nH]1`?
**A.** T/C (dose: 100.0 mg/kg/injection, schedule: Q04DX002 (ip), vehicle: water): 107 % of control; T/C (dose: 200.0 mg/kg/injection, schedule: Q04DX002 (ip), vehicle: water): 106 % of control

**Q.** How did the T/C (dose: 6.25 mg/kg/injection, schedule: Q01DX005 (ip), vehicle: saline with Tween-80) turn out when `CC(=O)Nc1[c-]cccc1.CC(=O)Nc1[c-]cccc1.CC(=O)O.CC(=O)O.[Pd].[Pd]` was run?
**A.** 94 % of control

**Q.** And the T/C (dose: 12.5 mg/kg/injection, schedule: Q01DX005 (ip), vehicle: saline with Tween-80)?
**A.** 95 % of control and 98 % of control

**Q.** And the T/C (dose: 25.0 mg/kg/injection, schedule: Q01DX005 (ip), vehicle: saline with Tween-80)?
**A.** 119 % of control and 98 % of control

**Q.** And the T/C [5]?
**A.** 100 % of control and 110 % of control

**Q.** How did the T/C (dose: 6.25 mg/kg/injection, schedule: Q01DX001 (ip), vehicle: saline with Tween-80) turn out when `CCCn1c2nc(=O)[nH]c(=O)c-2[n+]([O-])c2ccccc21` was run?
**A.** 97 % of control

**Q.** What about the T/C (dose: 12.5 mg/kg/injection, schedule: Q01DX001 (ip), vehicle: saline with Tween-80) of the same compound?
**A.** 98 % of control

**Q.** `CC(C)(C)N=C(CCN1CCCCC1)Nc1ccccc1Cl` was tested. Which T/C [11] did it give?
**A.** 116 % of control

**Q.** And the T/C [12]?
**A.** 106 % of control

**Q.** And the T/C [13]?
**A.** 102 % of control

**Q.** How did the T/C (dose: 25.0 mg/kg/injection, schedule: Q01DX009 (ip), vehicle: saline) turn out when `O=S1(=O)CCC(N2CCCCC2)C1` (stereo not given) was run?
**A.** 102 % of control

**Q.** And the T/C [8]?
**A.** 94 % of control

**Q.** What about the T/C [9] of the same compound?
**A.** 104 % of control

**Q.** And the T/C [10]?
**A.** 98 % of control

**Q.** Which T/C [5] does the source give for `CCOC(=O)c1c(C(C)=O)cnc2c(C#N)cnn12` here?
**A.** 98 % of control

**Q.** And the T/C [6]?
**A.** 98 % of control

**Q.** And the T/C [7]?
**A.** 91 % of control

**Q.** Which T/C (dose: 60.0 mg/kg/injection, schedule: Q01DX005 (ip), vehicle: saline with Tween-80) does the source give for `CC(=O)C[C@H](c1ccccc1)c1ccccc1[C@H](C)N(C)C` here?
**A.** 106 % of control

**Q.** And the T/C (dose: 120.0 mg/kg/injection, schedule: Q01DX005 (ip), vehicle: saline with Tween-80)?
**A.** 104 % of control

**Q.** Which T/C [3] does the source give for `NC(=S)c1ccc(Br)cc1` here?
**A.** 97 % of control

**Q.** And the T/C [4]?
**A.** 104 % of control

**Q.** Which T/C [14] does the source give for `CCN(CC)CCCNC(C)=O` here?
**A.** 100 % of control

**Q.** What about the T/C [15] of the same compound?
**A.** 91 % of control

**Q.** And the T/C [16]?
**A.** 95 % of control

**Q.** How did the T/C [17] turn out when `CCC(c1ccccc1)C(C#N)c1ccccc1` (stereo not given) was run?
**A.** 95 % of control

**Q.** And the T/C [11]?
**A.** 95 % of control

**Q.** And the T/C [12]?
**A.** 94 % of control

**Q.** And the T/C [13]?
**A.** 90 % of control

**Q.** `COc1ccc(-c2csc(C)n2)cc1OC` was tested. Which T/C (dose: 100.0 mg/kg/injection, schedule: Q04DX003 (ip), vehicle: Klucel (hydroxypropylcellulose) (HPC)) did it give?
**A.** 106 % of control

**Q.** And the T/C (dose: 200.0 mg/kg/injection, schedule: Q04DX003 (ip), vehicle: Klucel (hydroxypropylcellulose) (HPC))?
**A.** 106 % of control

**Q.** What about the T/C (dose: 400.0 mg/kg/injection, schedule: Q04DX003 (ip), vehicle: Klucel (hydroxypropylcellulose) (HPC)) of the same compound?
**A.** 103 % of control

**Q.** With `CC(C)(C)C(=O)CS(=O)(=O)CC(=O)C(C)(C)C` as the compound, how does the T/C [17] read?
**A.** 112 % of control

**Q.** And the T/C [11]?
**A.** 108 % of control

**Q.** And the T/C [12]?
**A.** 103 % of control

**Q.** `CN1C2CCC1C(Br)C=C2c1ccccc1` (stereo not given) was tested. Which T/C (dose: 50.0 mg/kg/injection, schedule: Q01DX005 (ip), vehicle: saline) did it give?
**A.** 109 % of control

**Q.** What does the source list for `CN=C1NC2C(C(=O)N(C)C(=O)N2C)C(=S)N1C` (stereo not given)?
**A.** T/C (dose: 6.25 mg/kg/injection, schedule: Q04DX002 (ip), vehicle: saline with Tween-80): 100 % of control; T/C (dose: 12.5 mg/kg/injection, schedule: Q04DX002 (ip), vehicle: saline with Tween-80): 104 % of control; T/C (dose: 25.0 mg/kg/injection, schedule: Q04DX002 (ip), vehicle: saline with Tween-80): 101 % of control

**Q.** Which results are given for `O=C(Oc1ccc(OC(=O)c2ccc([N+](=O)[O-])cc2)cc1)c1ccccc1`?
**A.** T/C (dose: 50.0 mg/kg/injection, schedule: Q04DX003 (ip), vehicle: saline): 101 % of control; T/C [18]: 95 % of control; T/C [14]: 95 % of control; T/C [19]: 95 % of control; T/C [15]: 102 % of control; T/C (dose: 400.0 mg/kg/injection, schedule: Q01DX001 (ip), vehicle: Klucel (hydroxypropylcellulose) (HPC)): 101 % of control; T/C [16]: 96 % of control

**Q.** How did the T/C [5] turn out when `COc1ccc(Cc2c(O)ccc3ccccc23)cc1` was run?
**A.** 104 % of control

**Q.** What about the T/C [6] of the same compound?
**A.** 104 % of control

**Q.** And the T/C [7]?
**A.** 111 % of control

**Q.** What does the source list for `N#CCC1(c2ccccc2)CCCCC1`?
**A.** T/C [11]: 97 % of control; T/C [12]: 107 % of control; T/C [13]: 107 % of control

**Q.** With `CC1=C(C)C2C(=O)NC(=O)NC12` (stereo not given) as the compound, how does the T/C [18] read?
**A.** 100 % of control

**Q.** And the T/C [19]?
**A.** 91 % of control

— PubChem BioAssay AID330 (DTP/NCI, 2004)
